Experimental data taken from PubChem BioAssay (NCI).
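How tested: cells in 96-well plates exposed to compound for 48 hours at five concentrations. GI50 is the concentration that inhibits growth by half. TGI marks complete inhibition of growth.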

Key:
Assay in all cases: NCI tumour cell line growth inhibition, 48 h
786-0 renal = tested on: 786-0 renal
A498 renal = tested on: A498 renal
A549 NSCLC = tested on: A549 NSCLC
ACHN renal = tested on: ACHN renal
BT-549 breast = tested on: BT-549 breast
CAKI-1 renal = tested on: CAKI-1 renal
CCRF-CEM leukemia = tested on: CCRF-CEM leukemia
COLO 205 colon = tested on: COLO 205 colon
DU-145 prostate = tested on: DU-145 prostate
EKVX NSCLC = tested on: EKVX NSCLC
HCC-2998 colon = tested on: HCC-2998 colon
HCT-116 colon = tested on: HCT-116 colon
HCT-15 colon = tested on: HCT-15 colon
HL-60(TB) leukemia = tested on: HL-60(TB) leukemia
HOP-62 NSCLC = tested on: HOP-62 NSCLC
HOP-92 NSCLC = tested on: HOP-92 NSCLC
HS 578T breast = tested on: HS 578T breast
HT29 colon = tested on: HT29 colon
IGROV1 ovarian = tested on: IGROV1 ovarian
K-562 leukemia = tested on: K-562 leukemia
KM12 colon = tested on: KM12 colon
LOX IMVI melanoma = tested on: LOX IMVI melanoma
M14 melanoma = tested on: M14 melanoma
MALME-3M melanoma = tested on: MALME-3M melanoma
MCF7 breast = tested on: MCF7 breast
MDA-MB-231 breast = tested on: MDA-MB-231 breast
MDA-MB-435 = tested on: MDA-MB-435
MOLT-4 leukemia = tested on: MOLT-4 leukemia
NCI-H226 lung = tested on: NCI-H226 lung
NCI-H23 lung = tested on: NCI-H23 lung
NCI-H460 lung = tested on: NCI-H460 lung
NCI-H522 lung = tested on: NCI-H522 lung
NCI/ADR-RES ovarian = tested on: NCI/ADR-RES ovarian
OVCAR-4 ovarian = tested on: OVCAR-4 ovarian
OVCAR-5 ovarian = tested on: OVCAR-5 ovarian
OVCAR-8 ovarian = tested on: OVCAR-8 ovarian
PC-3 prostate = tested on: PC-3 prostate
RPMI-8226 leukemia = tested on: RPMI-8226 leukemia
RXF 393 renal = tested on: RXF 393 renal
SF-268 CNS = tested on: SF-268 CNS
SF-295 CNS = tested on: SF-295 CNS
SF-539 CNS = tested on: SF-539 CNS
SK-MEL-2 melanoma = tested on: SK-MEL-2 melanoma
SK-MEL-28 melanoma = tested on: SK-MEL-28 melanoma
SK-MEL-5 melanoma = tested on: SK-MEL-5 melanoma
SK-OV-3 ovarian = tested on: SK-OV-3 ovarian
SN12C renal = tested on: SN12C renal
SNB-19 CNS = tested on: SNB-19 CNS
SNB-75 CNS = tested on: SNB-75 CNS
SR leukemia = tested on: SR leukemia
SW-620 colon = tested on: SW-620 colon
T-47D breast = tested on: T-47D breast
TK-10 renal = tested on: TK-10 renal
U251 CNS = tested on: U251 CNS
UACC-257 melanoma = tested on: UACC-257 melanoma
UACC-62 melanoma = tested on: UACC-62 melanoma
UO-31 renal = tested on: UO-31 renal

## COc1ccccc1/C=C/C=N/NC1=NC2C(S1)N(C)C(=O)N2c1ccccc1 (centres undefined)
786-0 renal
  GI50: 642 nM
  TGI: 13800 nM
A498 renal
  GI50: 251 nM
  TGI: 730 nM
A549 NSCLC
  GI50: 485 nM
  TGI: > 100000 nM
ACHN renal
  GI50: 692 nM
  TGI: > 48400 nM
BT-549 breast
  GI50: 264 nM
  TGI: 653 nM
CAKI-1 renal
  GI50: 562 nM
  TGI: 37800 nM
CCRF-CEM leukemia
  GI50: 408 nM
  TGI: > 78800 nM
COLO 205 colon
  GI50: 230 nM
  TGI: 487 nM
DU-145 prostate
  GI50: 471 nM
  TGI: > 100000 nM
EKVX NSCLC
  GI50: 729 nM
  TGI: > 100000 nM
HCC-2998 colon
  GI50: 377 nM
  TGI: 11600 nM
HCT-116 colon
  GI50: 353 nM
  TGI: 5190 nM
HCT-15 colon
  GI50: 371 nM
  TGI: 23100 nM
HL-60(TB) leukemia
  GI50: 294 nM
  TGI: > 31900 nM
HOP-62 NSCLC
  GI50: 573 nM
  TGI: 24700 nM
HOP-92 NSCLC
  GI50: 202 nM
  TGI: 1280 nM
HS 578T breast
  GI50: 356 nM
  TGI: 25500 nM
HT29 colon
  GI50: 332 nM
  TGI: 1490 nM
IGROV1 ovarian
  GI50: 601 nM
  TGI: 26300 nM
K-562 leukemia
  GI50: 383 nM
  TGI: > 100000 nM
KM12 colon
  GI50: 400 nM
  TGI: > 37100 nM
LOX IMVI melanoma
  GI50: 458 nM
  TGI: 12500 nM
M14 melanoma
  GI50: 333 nM
  TGI: 2340 nM
MALME-3M melanoma
  GI50: 2680 nM
  TGI: 29000 nM
MCF7 breast
  GI50: 385 nM
  TGI: > 100000 nM
MDA-MB-231 breast
  GI50: 588 nM
  TGI: 20900 nM
MDA-MB-435
  GI50: 250 nM
  TGI: 636 nM
MOLT-4 leukemia
  GI50: 404 nM
  TGI: > 100000 nM
NCI-H226 lung
  GI50: 572 nM
  TGI: > 47900 nM
NCI-H23 lung
  GI50: 474 nM
  TGI: > 100000 nM
NCI-H460 lung
  GI50: 349 nM
  TGI: 11000 nM
NCI-H522 lung
  GI50: 210 nM
  TGI: 575 nM
NCI/ADR-RES ovarian
  GI50: 359 nM
  TGI: > 100000 nM
OVCAR-4 ovarian
  GI50: 5230 nM
  TGI: > 100000 nM
OVCAR-5 ovarian
  GI50: 690 nM
  TGI: > 100000 nM
OVCAR-8 ovarian
  GI50: 357 nM
  TGI: 2230 nM
PC-3 prostate
  GI50: 435 nM
  TGI: 19600 nM
RPMI-8226 leukemia
  GI50: 396 nM
  TGI: 11200 nM
RXF 393 renal
  GI50: 312 nM
  TGI: 3360 nM
SF-268 CNS
  GI50: 1690 nM
  TGI: 37200 nM
SF-295 CNS
  GI50: 336 nM
  TGI: 99200 nM
SF-539 CNS
  GI50: 292 nM
  TGI: 867 nM
SK-MEL-2 melanoma
  GI50: 449 nM
  TGI: 15300 nM
SK-MEL-28 melanoma
  GI50: 11800 nM
  TGI: 42200 nM
SK-MEL-5 melanoma
  GI50: 545 nM
  TGI: 5270 nM
SK-OV-3 ovarian
  GI50: 510 nM
  TGI: > 44800 nM
SN12C renal
  GI50: 617 nM
  TGI: 29000 nM
SNB-19 CNS
  GI50: 455 nM
  TGI: > 93400 nM
SNB-75 CNS
  GI50: 419 nM
  TGI: > 53100 nM
SR leukemia
  GI50: 343 nM
  TGI: > 46800 nM
SW-620 colon
  GI50: 403 nM
  TGI: 18900 nM
T-47D breast
  GI50: 4040 nM
  TGI: > 79300 nM
TK-10 renal
  GI50: 11400 nM
  TGI: > 70900 nM
U251 CNS
  GI50: 387 nM
  TGI: 6280 nM
UACC-257 melanoma
  GI50: 2180 nM
  TGI: 34500 nM
UACC-62 melanoma
  GI50: 456 nM
  TGI: 37000 nM
UO-31 renal
  GI50: 799 nM
  TGI: > 55600 nM
